Assay: in vitro
Details: human, hela cells, % viability

Structure (SMILES)	viability at 28.5 h, 10 µM
CCC(NS(=O)(=O)c1cc(-n2cccn2)ccc1OC)C1CC(O)C1 (stereo not shown) [CBK307103]	106%
CCOc1ccc(-c2ccnc(N[C@H]3CC[C@@H](N)CC3)n2)cc1C(=O)O [CBK307104]	89.8%
Cn1cc(CN2C[C@H]3CN(C(=O)C4CCC4)C[C@@]3(C(=O)O)C2)cc1C#N [CBK307105]	101%
CO[C@H]1CN(C)C[C@@H]1NC(=O)c1cccc2c1NCCC2 [CBK307107]	106%
CC(C)Cn1c(=O)c2c(nc3n2CCS3)n(C)c1=O [CBK307109]	98.1%
CCOc1ccc(Cl)cc1CN(C)C(=O)NC(c1ncnn1C)C(C)C (stereo not shown) [CBK307110]	80.5%
CCOc1ccc(Cl)cc1CN(C)C(=O)NCc1nccn1C(C)C [CBK307111]	101%
CCO[C@H]1COC[C@@H]1NC(=O)c1cccc2c1NCCC2 [CBK307113]	94.9%
CC(C)(C)C1CCc2c(sc(NC(=O)c3cccs3)c2C(N)=O)C1 (stereo not shown) [CBK307114]	85.4%
CC(C)N1CCCC2(CCN(C(=O)Cc3c[nH]c(=O)n(C)c3=O)C2)C1=O (stereo not shown) [CBK307115]	87.8%
O=C(NCCCN1CCCC(O)C1)N1CCCN(Cc2cccs2)CC1 (stereo not shown) [CBK307116]	82%
CC(O)CNC(=O)c1cn2cc(-c3cccs3)n(CC3CC3)c(=O)c2n1 (stereo not shown) [CBK307117]	81.3%
Cc1cnc(C)c(N2CCN(c3cc([C@H]4C[C@@H](N)C4)ncn3)CC2)n1 [CBK307118]	88.7%
CN1CCOCC(CNC(=O)c2ccc(-c3cnc(N)nc3)cc2)C1 (stereo not shown) [CBK307119]	100%
Cc1nnc(CCn2cnc3cccnc3c2=O)s1 [CBK307125]	96.7%
COc1coc(CN2C(=O)COc3cccnc32)cc1=O [CBK307126]	96.7%
CCCc1cn(C2CCN(c3cc(-n4cc(C)cn4)ncn3)CC2)nn1 [CBK307127]	104%
O=C(NCCn1cccn1)N1CCCN(Cc2ccncc2)CC1 [CBK307129]	90.1%
COCCn1c(CO)nnc1[C@H]1C[C@@H](NC(=O)c2ccc(O)c(F)c2)C1 [CBK307132]	74.1%
CCn1c(C)nnc1SCCNC(=O)c1cnc(N(C)C)nc1C [CBK307135]	93%
CSCCCN1CCn2nc(CNc3cnccn3)cc2C1 [CBK307136]	92.5%
COc1ccc(Cc2nc(CC3CCCOC3)n(CC(F)(F)F)n2)cc1 (stereo not shown) [CBK307140]	112%
CCOC(=O)c1cn(CC)c2cc(N3CCN(C)CC3)c(F)cc2c1=O [CBK307141]	92.9%

Structure (SMILES)	viability at 28.5 h, 10 µM
CCOC(=O)c1cn(CC)c2cc(N3CCOCC3)c(F)cc2c1=O [CBK307142]	95.7%
Cc1cccn2c(CN3CCCOCC3)c(C(=O)N3CCOCC3)nc12 [CBK307144]	111%
CCn1cc(C(=O)NN)c(=O)c2cc(F)c(N3CCCCCC3)cc21 [CBK307145]	100%
CCNC(=O)N1CCC(Oc2cc(C)ccc2F)(C(=O)O)CC1 [CBK307147]	87.9%
CCn1cc(C(=O)NN)c(=O)c2cc(F)c(N3CCSCC3)cc21 [CBK307148]	98.8%
Cc1nnc(N2CCn3nc(C(O)Cc4ccccc4)cc3C2)s1 (stereo not shown) [CBK307152]	86%
Cc1cc(-c2cn3cc(C(=O)N(C)CC(C)O)nc3c(=O)n2C)c(C)o1 (stereo not shown) [CBK307154]	88%
COCCn1cnnc1CN(C)C(=O)NC(C)c1nc2ccccc2[nH]1 (stereo not shown) [CBK307155]	99.6%
CNc1nc(NCCc2cnc(=O)n(C)c2O)cc(C2CCOC2)n1 (stereo not shown) [CBK307156]	105%
O=C(CCc1cn2ccccc2n1)NCc1cc2n(n1)CCCNC2 [CBK307157]	88.8%
Cc1cc(=O)[nH]c(C)c1C(=O)N1CCC(N2CCCC(CO)C2)CC1 (stereo not shown) [CBK307158]	103%
COCC1(C(=O)N2CC(=O)N(c3ccccc3C#N)CC2C)CCC1 (stereo not shown) [CBK307159]	89%
Cc1cc(-c2cn3cc(C(=O)NCCN(C)C)nc3c(=O)n2C)c(C)o1 [CBK307160]	94.3%
CCCOCCCn1ccc2nc(OC)c(C#N)cc2c1=O [CBK307162]	88%
Cc1ccc(-n2cccn2)cc1S(=O)(=O)NCCN1CCCCC1CO (stereo not shown) [CBK307163]	122%
CCn1cc(C(=O)N2CCOC(C(=O)O)C2)c(=O)c2ccc(C)nc21 (stereo not shown) [CBK307165]	83.5%
NC1CC(c2cc(NCCOc3ccccc3Cl)ncn2)C1 (stereo not shown) [CBK307167]	73.7%
CCc1nc(N)nc(N2CCC3(CCC(CNC(C)=O)O3)CC2)c1C (stereo not shown) [CBK307168]	100%
CCOc1ccc(Cl)cc1CN(C)C(=O)NC(C)CN1CCOCC1 (stereo not shown) [CBK307170]	92.4%
CCCc1nnc(NC(=O)CN2CCc3c(c(CO)nn3C)C2)s1 [CBK307172]	98.4%
CCn1ccnc1CN1CCCC(CCc2ccccc2F)C1 (stereo not shown) [CBK307173]	99.3%
Cc1cc(C)n(CCCC(=O)N2CC3(CCNCC3)CC2C(=O)O)n1 (stereo not shown) [CBK307174]	89.5%
CCCNC(=O)c1nn2c(c1Cl)NC(c1cccs1)CC2C(F)(F)F (stereo not shown) [CBK307177]	90.3%

Structure (SMILES)	viability at 28.5 h, 10 µM
COCCNC(=O)c1nn2c(c1Br)NC(c1cccs1)CC2C(F)(F)F (stereo not shown) [CBK307178]	84.5%
Cc1cc(C(=O)NC(Cc2ccncc2)C2CC(O)C2)c(C)o1 (stereo not shown) [CBK307181]	96.5%
COc1cc(NC(=O)NCc2cncn2CC(C)C)c2ncccc2c1 [CBK307182]	52.1%
CC(C)CC(NC(=O)Cc1cccc(O)c1)c1nnc2n1CCNCC2 (stereo not shown) [CBK307183]	98.3%
CCn1c(C2CCN(C(=O)c3cc(C(F)(F)F)n[nH]3)CC2)nn(C)c1=O [CBK307184]	88.9%
Cc1cc(C)n(CC(=O)NCCCn2ccnc2C(C)C)c(=O)n1 [CBK307185]	92.4%
Cc1cc(F)ccc1OC1(C(=O)O)CCN(Cc2ccoc2)CC1 [CBK307187]	104%
Cc1cccc(C(=O)NC(CC(C)C)c2nnc3n2CCNCC3)c1O (stereo not shown) [CBK307191]	99.6%
Clc1ccc(OCCCn2ccnc2)c(CN2CCSCC2)c1 [CBK307194]	104%
Cc1nn(C)c(C)c1CCC(=O)NCC1CN(c2ccccc2)CCO1 (stereo not shown) [CBK307199]	103%
COc1ccccc1CC(=O)N[C@@H]1CCN(Cc2cccnc2)C[C@H]1O [CBK307200]	100%
Cn1ccnc1CN1C[C@@H]2CN(C(=O)C3CCCC3)C[C@]2(C(=O)O)C1 [CBK307201]	102%
CCCn1ccnc1CN1CCCC(CC2CC2)(C(=O)O)C1 (stereo not shown) [CBK307205]	100%
CCCCSc1nc(N)cc(N2CCCC(C(=O)N3CCOCC3)C2)n1 (stereo not shown) [CBK307210]	75.2%
COCCn1ccnc1C1CCCN(C(=O)COc2ccccc2Cl)C1 (stereo not shown) [CBK307211]	90.2%
CCn1cc(NC(=O)NC2CCN(c3ncccc3C#N)CC2)c(C)n1 [CBK307213]	93.1%
Cc1nc(C(=O)N2CCn3nc(C(O)Cc4ccccc4)cc3C2)cs1 (stereo not shown) [CBK307214]	98.5%
CN(C)c1ccc(-c2ncnn2CC(F)(F)F)cn1 [CBK307215]	88%
CCCS(=O)(=O)N1CCCC(Cc2ccc(F)cc2F)(C(=O)OCC)C1 (stereo not shown) [CBK307221]	85.5%
CCn1cc(S(=O)(=O)NCc2ccc3[nH]c4c(c3c2)CCCC4)cn1 [CBK307225]	100%
Cc1ccc(OC2(C(=O)N3CCCC3C(F)(F)F)CCNCC2)cc1 (stereo not shown) [CBK307226]	82.5%
COc1ccccc1-n1nc(-c2ccncc2)nc1C1CCOCC1 [CBK307229]	95%
CCN(CC1CCOCC1)C(=O)Cn1c(C)cc(=O)c2ccccc21 [CBK307230]	88.7%

Structure (SMILES)	viability at 28.5 h, 10 µM
COc1cccc(C(=O)NCCC(=O)N2CCc3c(nc[nH]c3=O)C2)c1 [CBK307231]	103%
CNc1nc(C)c(C(=O)N2CCCC(COc3ccc(F)cc3)C2)s1 (stereo not shown) [CBK307234]	103%
COCCc1nc(C2CCC2)n(Cc2ccccc2C)n1 [CBK307238]	91.8%
CCN(CC1CCN(C)C1)C(=O)c1cc(COc2cccc(F)c2)[nH]n1 (stereo not shown) [CBK307239]	88.8%
COCCNc1nc2c(c(N3CCCC(CO)C3)n1)CCNCC2 (stereo not shown) [CBK307242]	111%
CCn1ncnc1CN1CCOc2ccc(CO)cc2C1 [CBK307245]	80.7%
COc1nccc(N2CCC3(CC(=O)NC3=O)C2)c1C#N (stereo not shown) [CBK307246]	108%
CCC(NC(=O)CCc1cccnc1)c1cn2cccnc2n1 (stereo not shown) [CBK307247]	81.7%
CCC(CNC(=O)c1coc(COc2ccc3sc(C)nc3c2)n1)OC (stereo not shown) [CBK307248]	72.3%
Cn1c(=O)n(C)c2cc(CNC(=O)CC3COCCN3)ccc21 (stereo not shown) [CBK307252]	103%
CNC(=O)CCc1ccccc1NC(=O)NCCSc1ncn[nH]1 [CBK307253]	89.9%
CCCn1ccnc1CNc1nc2c(s1)c(C)nn2C [CBK307254]	84.3%
COc1nccc(N2CCC3(CCC(=O)N(CCO)C3)CC2)c1C#N [CBK307255]	117%
CSCC1CCCN(C(=O)c2cc3ncc(CCO)cn3n2)C1 (stereo not shown) [CBK307256]	79.6%
Cc1cc(C)n2ncc(C(=O)N3CCCCC3c3ccccn3)c2n1 (stereo not shown) [CBK307257]	90.4%
COCCOCC(=O)N1CC(=O)N(c2ccccc2C#N)CC1C (stereo not shown) [CBK307258]	91.7%
CCCc1nc(NC(CC)c2nc(C)c(C)s2)c2cnn(C)c2n1 (stereo not shown) [CBK307261]	89.1%
O=C(NC1CC(=O)N(CCc2ccc(F)cc2)C1)c1cn2ccsc2n1 (stereo not shown) [CBK307263]	100%
O=C1CCC2(CCN1)CCN(Cc1cccc(-c3ccco3)c1)CC2 [CBK307264]	115%
O=C(c1cc2ncc(CCO)cn2n1)N1CCC(c2ccccc2Cl)C1 (stereo not shown) [CBK307266]	105%
Cn1nnc2cc(C(=O)NCCN3CCCCC3CO)ccc21 (stereo not shown) [CBK307268]	84.3%
CCO[C@H]1CN(C)C[C@@H]1NC(=O)c1cccc2c1NCCC2 [CBK307269]	90.4%

Reference: publication PMC12040169 (PLOS Biology, 2025)
